# According to patent US5180735A, “Cyclohexanol derivatives, production and use thereof” (Takeda Chemical Industries, Ltd., priority 1989, dated 1993):
# What was measured:
# [1] = system: angiogenesis due to bFGF (rat cornea); assay: Angiogenesis inhibitory action by the rat cornea micropocket method; assay type: in vivo, male Sprague-Dawley rats; conditions: sustained release pellet, 20 μg sample, next to bFGF pellet (250 ng) in cornea; observed after 10 days
# Description: Angiogenesis inhibitory action by the rat cornea micropocket method
# Essentially the same method of Gimbrone et al. [J. National Cancer Institute 52:413-419 (1974)] was follows.
# Specifically, adult male Sprague-Dawley rats (11 to 16 week old) were anesthetized with nembtal and locally anesthetized by instillation of xylocaine eyedrops onto the eyeball. The cornea was incised to a length of about 2 mm at about 2 mm inside from the corneal circumference by means of an injection needle, and a basic fibroblast growth factor (bFGF, bovine brain-derived, purified product, R & D Inc.) and a sustained release pellet containing the test sample were inserted side by side into the incision so that the bFGF pellet was located on the central side in the cornea. In the control group, the bFGF pellet and a sample-free pellet were inserted into the cornea. After 10 days, the cornea was observed under a stereoscopic microscope.
# The sustained release pellets were prepared in the following manner. An ethylene-vinyl acetate copolymer (Takeda Chemical Industries, Ltd.) was dissolved in dichloromethane to a concentration of 8%. A 3 μl portion of the solution was air-dried on a glass dish, an aqueous solution of bFGF (250 ng) was then placed thereon and air-dried and, finally 3 μl of the above-mentioned ethylene-vinyl acetate copolymer solution was placed further thereon and air-dried to give a sandwich sheet. This sandwich sheet was made round into a bFGF pellet. The test sample pellets were prepared by dissolving each sample in ethanol to a concentration of 20 μg/2 μl, mixing the solution with 6 μl of an ethylene-vinyl acetate copolymer solution, air-drying the mixed solution on a glass dish and making the thus-obtained sheet round.
# In the above Table 1, the number of rats subjected to the test was shown by denominator, and the number of rats whose […] due to bFGF was retarded or weakened by administration of the test sample was shown by numerator. In the judgment, +means an inhibition rate of 70% or more, and ±means that of less than 70% but exceeding 40%.
# M5076 cells = assay: Antitumor test in mice inoculated subcutaneously with M5076 cells (tumor size, T/C); assay type: in vivo, C57BL/6 mice; conditions: Mus musculus, M5076, sc, 312 h, 30 mg/kg, subcutaneous, 10 times in total; tumor size after 13 days; read-out: T/C (%) (ratio of tumor size to control group)
# Protocol: C57BL/6 mice (a group consisting of 6 mice) were inoculated subcutaneously at the dorsolateral area with 2×10^6 M5076 cells, and then a test compound dissolved in a 5% gum arabic physiological saline solution was subcutaneously administered 10 times in total, i.e. 1st, 2nd, 4th, 5th, 6th, 7th, 8th, 9th, 11th and 12th day after the inoculation. After 13 days, the major axis (a) and the minor axis (b) of the tumor tissue were measured to determine the tumor size by the calculation formula of a×b^2 ×1/2. The ratio of the tumor size thus calculated to the tumor size of animals in the control group was shown by T/C (%).
smiles,measurement,setting,value
"C=C(C)C(=O)NC(=O)O[C@@H]1CC[C@](O)(CCl)[C@@H]([C@@]2(C)O[C@@H]2CC=C(C)C)[C@@H]1OC [Example 3, 4-O-(methacryloylcarbamoyl)-2-(1,2-epoxy-1,5-dimethyl-4-hexenyl)-3-methoxy-1-chloromethyl-1,4-cyclohexanediol]",Inhibitory Rate (rats whose angiogenesis due to bFGF was retarded or weakened / rats subjected to the test),[1],4/7
same,Judgment (Angiogenesis Inhibitory Activity),[1],± (that of less than 70% but exceeding 40%)
same,response vs control in vivo at 30 mg/kg,M5076 cells,36%
